# Reference: patent US6420357B1, “Cytotoxic alkaloid derivatives including Asmarine A and B isolated from a sponge” (Instituto Biomar, S.A., priority 1997, dated 2002)
# How the values were obtained:
# Type in all cases: cell-based
# [1] = test system: P-388 (suspension culture of a lymphoid neoplasm from DBA/2 mouse); assay: in vitro cytotoxic assay, P-388 cells; settings: P388, 72 h, three days of incubation, approximate IC50 by growth vs control wells
# Protocol: (§1) Cells were maintained in logarithmic phase of growth in Eagle's Minimum Essential Medium, with Earle's Balanced Salts, with 2.0 mM L-glutamine, with non-essential amino acids, without sodium bicarbonate (EMEM/neaa); supplemented with 10% Fetal Calf Serum (FCS), 10^−2 M sodium bicarbonate and 0,1 g/l penicillin-G+streptomycin sulfate.
# (§2) A screening procedure has been carried out to determine and compare the antitumor activity of these compounds, using an adapted form of the method described by Bergeron et al. (Reference 3). The antitumor cells employed were P-388 (suspension culture of a lymphoid neoplasm from DBA/2 mouse), A-549 (monolayer culture of a human lung carcinoma), HT-29 (monolayer culture of a human colon carcinoma) and MEL-28 (monolayer culture of a human melanoma).
# (§3) P-388 cells were seeded into 16 mm wells at 1×10^4 cells per well in 1 ml aliquots of MEM 5FCS containing the indicated concentration of drug. A separate set of cultures without drug was seeded as control growth to ensure that cells remained in exponential phase of growth. All determinations were carried out in duplicate. After three days of incubation at 37° C., 10% CO2 in a 98% humid atmosphere, an approximately IC50 was determined by comparing the growth in wells with drug to the growth in wells control.
# [2] = test system: MEL-28 (monolayer culture of a human melanoma); assay: in vitro cytotoxic assay, MEL-28 cells; settings: SK-MEL-28, 72 h, three days of incubation, Crystal Violet staining, approximate IC50
# Protocol: as §1, §2
# as §3, with “A-549, HT-29 and MEL-28” for “P-388”, “2×10^4” for “1×10^4”, “10FCS” for “5FCS”, “the wells were stained with 0.1% Crystal Violet. An” for “an”
# [3] = test system: HT-29 (monolayer culture of a human colon carcinoma); assay: in vitro cytotoxic assay, HT-29 cells; settings: 72 h, three days of incubation, Crystal Violet staining, approximate IC50
# Protocol: as §1, §2
# as §3, with “A-549, HT-29 and MEL-28” for “P-388”, “2×10^4” for “1×10^4”, “10FCS” for “5FCS”, “the wells were stained with 0.1% Crystal Violet. An” for “an”
# [4] = test system: A-549 (monolayer culture of a human lung carcinoma); assay: in vitro cytotoxic assay, A-549 cells; settings: A549, 72 h, three days of incubation, Crystal Violet staining, approximate IC50
# Protocol: as §1, §2
# as §3, with “A-549, HT-29 and MEL-28” for “P-388”, “2×10^4” for “1×10^4”, “10FCS” for “5FCS”, “the wells were stained with 0.1% Crystal Violet. An” for “an”
Compound,IC50 [1] [nM],IC50 [2] [nM],IC50 [3] [nM],IC50 [4] [nM]
C=C1CCC[C@@H]2[C@@](C)(CC[C@@]3(C)CCn4cnc5ncnc(c54)N3O)[C@H](C)CC[C@@]12C [Asmarine A],1180,1180,1180,1180
C=C1CCC[C@H]2[C@@](C)(CC[C@@]3(C)CCn4cnc5ncnc(c54)N3O)[C@H](C)CC[C@@]12C [Asmarine B],240,240,120,120
